Here are results for 13 compounds from ChEMBL document CHEMBL1201862, “PubChem BioAssay data set” (2004).

Assay [1] concerns the target Acyl-homoserine lactone acylase PvdQ (Pseudomonas aeruginosa (strain LESB58), UniProt Q9I194). Put plainly: PvdQ acylase enzyme activity blockers – biochemical, fluorescence, plate reader and imaging, cherry-picks, dose response (AID 493231).
A short description of assay [2]: Luminescence Cell-Based Dose Response HTS to Identify Activators of Luciferase Translation or Activity in H4-C Neuroglioblastoma Cells. [Related pubchem assays: 1829 (Project Summary), 1814 (Primary HTS)]. It is filed as functional.
Assay [3] in a line: Luminescence Cell-Based Dose Response HTS to Identify Activators of Luciferase Translation or Activity in H4 […] Cells. [Related pubchem assays: 1829 (Project Summary), 1814 (Primary HTS)]. Format: functional.
Assay [4] has as its system H4. The assay is described as follows: Luminescence Cell-Based Dose Response HTS to Identify Activators of 5'UTR Stem-Loop Driven Prion Protein mRNA Translation in H4 Neuroglioblastoma Cells. [Related pubchem assays: 1829 (Project Summary), 1814 (Primary HTS)]. To be noted: Homo sapiens. It is filed as functional.
Assay [5] in a line: Luminescence Cell-Based Dose Retest to Confirm Activators of 5'UTR Stem-Loop Driven Alpha-Synuclein mRNA Translation in H4 Neuroglioblastoma Cells. [Related pubchem assays (depositor defined):AID1813, AID1829]. Format: functional.
Assay [6] in a line: Luminescence Cell-Based Dose Response HTS to Identify Activators of 5'UTR Stem-Loop Driven Prion Protein mRNA Translation in H4-C Neuroglioblastoma Cells. [Related pubchem assays: 1829 (Project Summary), 1814 (Primary HTS)]. It is filed as functional.
Assay [7] is described as follows: Luminescence Cell-Based Dose Confirmation HTS to Identify Activators of 5'UTR Stem-Loop Driven Alpha-Synuclein mRNA Translation in H4 Neuroglioblastoma Cells. [Related pubchem assays: 1829 (Project Summary), 1814 (Primary HTS)]. It is filed as functional.
Assay [8] has as its system HEK293. The assay is described as follows: cells. Format: functional, cell-based. To be noted: Homo sapiens.
For assay [9], the system named is HEK293. The assay is described as follows: cells. Format: functional, cell-based. The settings on record: Homo sapiens. This is another data set of the same source.
Assay [10] concerns the target Scavenger receptor class B member 1 (Mus musculus, UniProt Q61009). The assay is described as follows: mouse SR-BI DiI-HDL uptake blockers – ldlA[mSR-BI] cells, fluorescence, cherry pick, dose response (AID 493194).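 Note: cellular uptake of fluorescent DiI-labeled HDL measured as cell fluorescence.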 Format: functional, cell-based.
Assay [11] has as its system HEK293. Put plainly: inhibition of NOD1-driven NF-kB reporter – cell-based, luminescence, uHTS, primary screen (AID 1578). Format: functional. To be noted: Homo sapiens.
Assay [12] relates to INS1. The assay is described as follows: INS-1E survival protection against cytokine death – cell-based, luminescence, retest, dose response (AID 449756).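 Note: cell death triggered by IL-1 beta plus TNF-alpha plus IFN-gamma mixture; protective hits raise ATP signal compared with cytokine alone wells.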 It is filed as functional. To be noted: Rattus norvegicus.
Assay [13] has as its system HEK293. The assay is described as follows: cells. Format: functional, cell-based. To be noted: Homo sapiens. This is another data set of the same source.
In assay [14] the target is Paired box protein Pax-8 (Homo sapiens, UniProt Q06710). Put plainly: PAX8 transcriptional activity inhibition in RMG-I – RMG-I cells, luciferase, cherry-pick, dose response (AID 687027).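 Note: luciferase reporter driven by Pax8 target thyroperoxidase promoter measured by SteadyGlo luminescence.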 It is filed as functional, cell-based.
Chain of Paired box protein Pax-8 (Q06710 whole entry): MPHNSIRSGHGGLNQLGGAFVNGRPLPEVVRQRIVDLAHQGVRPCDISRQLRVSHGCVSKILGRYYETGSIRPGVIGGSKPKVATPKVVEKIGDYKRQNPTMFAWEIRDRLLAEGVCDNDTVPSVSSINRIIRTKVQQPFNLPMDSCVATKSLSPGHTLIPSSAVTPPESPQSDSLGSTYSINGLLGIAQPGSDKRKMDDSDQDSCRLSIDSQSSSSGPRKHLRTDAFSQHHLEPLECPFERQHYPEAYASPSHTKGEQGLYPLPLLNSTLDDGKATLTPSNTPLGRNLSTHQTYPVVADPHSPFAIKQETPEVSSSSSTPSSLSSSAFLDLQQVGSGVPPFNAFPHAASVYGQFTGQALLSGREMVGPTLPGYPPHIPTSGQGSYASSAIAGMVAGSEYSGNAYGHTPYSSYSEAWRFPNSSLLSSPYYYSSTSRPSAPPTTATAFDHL
In assay [15] the test system is HEK293. The assay is described as follows: NOD2 signaling inhibitors in MDP-stimulated cells, cell-based, uHTS, luminescence (AID 2001). Format: functional. The settings on record: Homo sapiens.
In assay [16] the target is Nucleotide-binding oligomerization domain-containing protein 2 (Homo sapiens, UniProt Q9HC29). Put plainly: inhibition of NOD2-driven NF-kB reporter – cell-based, luminescence, uHTS, HEK293 (AID 1566). It is filed as functional.
Chain of Nucleotide-binding oligomerization domain-containing protein 2 (Q9HC29 whole entry, the tested form may be a part): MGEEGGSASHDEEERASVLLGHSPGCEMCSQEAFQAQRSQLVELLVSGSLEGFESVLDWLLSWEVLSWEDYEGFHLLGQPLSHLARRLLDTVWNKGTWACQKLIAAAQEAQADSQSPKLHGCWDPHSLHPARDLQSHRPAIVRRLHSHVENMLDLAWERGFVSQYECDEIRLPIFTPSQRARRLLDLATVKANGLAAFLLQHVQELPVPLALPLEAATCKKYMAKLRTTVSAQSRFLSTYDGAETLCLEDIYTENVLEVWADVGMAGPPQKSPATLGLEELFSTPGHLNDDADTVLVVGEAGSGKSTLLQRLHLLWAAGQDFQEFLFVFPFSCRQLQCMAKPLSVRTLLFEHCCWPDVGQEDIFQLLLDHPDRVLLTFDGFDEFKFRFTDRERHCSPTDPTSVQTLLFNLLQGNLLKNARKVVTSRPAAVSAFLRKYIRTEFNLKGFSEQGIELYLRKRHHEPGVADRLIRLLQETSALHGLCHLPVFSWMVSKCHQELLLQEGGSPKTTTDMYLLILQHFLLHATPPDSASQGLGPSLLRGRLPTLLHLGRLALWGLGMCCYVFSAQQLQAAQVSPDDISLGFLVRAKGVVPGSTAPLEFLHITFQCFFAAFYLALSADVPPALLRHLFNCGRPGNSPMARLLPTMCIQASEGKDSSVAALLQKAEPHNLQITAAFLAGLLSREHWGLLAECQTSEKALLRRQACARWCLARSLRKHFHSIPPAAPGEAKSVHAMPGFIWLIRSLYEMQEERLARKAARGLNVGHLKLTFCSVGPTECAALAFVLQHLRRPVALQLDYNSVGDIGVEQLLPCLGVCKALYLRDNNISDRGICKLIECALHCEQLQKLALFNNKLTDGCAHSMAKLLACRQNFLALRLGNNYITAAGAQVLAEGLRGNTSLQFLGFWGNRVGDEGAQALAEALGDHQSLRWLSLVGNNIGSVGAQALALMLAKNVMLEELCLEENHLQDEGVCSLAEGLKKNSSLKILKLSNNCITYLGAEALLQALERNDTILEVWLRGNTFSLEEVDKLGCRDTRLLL
Assay [17] has as its target T1, Tyrosine-protein phosphatase non-receptor type 7 (Homo sapiens, UniProt P35236).
T1 sequence (P35236 whole entry): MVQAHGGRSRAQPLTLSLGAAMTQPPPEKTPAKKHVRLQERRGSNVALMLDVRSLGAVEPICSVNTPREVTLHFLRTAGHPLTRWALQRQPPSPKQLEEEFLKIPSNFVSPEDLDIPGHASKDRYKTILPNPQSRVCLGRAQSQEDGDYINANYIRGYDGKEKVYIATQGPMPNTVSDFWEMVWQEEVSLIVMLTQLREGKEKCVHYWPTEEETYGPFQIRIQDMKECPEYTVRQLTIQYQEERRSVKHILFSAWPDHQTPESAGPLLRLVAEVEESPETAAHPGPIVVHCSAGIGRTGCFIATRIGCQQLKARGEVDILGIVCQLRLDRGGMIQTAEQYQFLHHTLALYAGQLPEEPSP
The assay is described as follows: SAR analysis of chemical inhibitors of HePTP using a Fluorescent assay - Set 2. [Related pubchem assays (depositor defined):AID1059, AID1077, AID1661, AID2085, AID521]. Format: functional.

In assay [18] the target is T2, Dual specificity protein phosphatase 3 (Homo sapiens, UniProt P51452). The assay is described as follows: SAR VHR1 Fluorescent Assay for In Vitro dose response studies Set 2. [Related pubchem assays (depositor defined):AID1654, AID1661, AID1878]. Format: functional.
T2 sequence (P51452 whole entry): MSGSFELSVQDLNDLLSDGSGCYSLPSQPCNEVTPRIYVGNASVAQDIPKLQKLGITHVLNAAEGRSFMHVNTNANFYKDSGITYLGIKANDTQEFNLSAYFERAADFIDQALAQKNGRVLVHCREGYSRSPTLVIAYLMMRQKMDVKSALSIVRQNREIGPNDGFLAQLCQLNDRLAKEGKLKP
Assay [19] deals with Intestinal-type alkaline phosphatase (Homo sapiens, UniProt P09923). Put plainly: Dose Response confirmation of uHTS hits from a small molecule inhibitors of human intestinal alkaline phosphatase via a luminescent assay. [Related pubchem assays (depositor defined):AID2544, AID2574]. Format: functional.
Chain of Intestinal-type alkaline phosphatase (P09923 whole entry, the tested form may be a part): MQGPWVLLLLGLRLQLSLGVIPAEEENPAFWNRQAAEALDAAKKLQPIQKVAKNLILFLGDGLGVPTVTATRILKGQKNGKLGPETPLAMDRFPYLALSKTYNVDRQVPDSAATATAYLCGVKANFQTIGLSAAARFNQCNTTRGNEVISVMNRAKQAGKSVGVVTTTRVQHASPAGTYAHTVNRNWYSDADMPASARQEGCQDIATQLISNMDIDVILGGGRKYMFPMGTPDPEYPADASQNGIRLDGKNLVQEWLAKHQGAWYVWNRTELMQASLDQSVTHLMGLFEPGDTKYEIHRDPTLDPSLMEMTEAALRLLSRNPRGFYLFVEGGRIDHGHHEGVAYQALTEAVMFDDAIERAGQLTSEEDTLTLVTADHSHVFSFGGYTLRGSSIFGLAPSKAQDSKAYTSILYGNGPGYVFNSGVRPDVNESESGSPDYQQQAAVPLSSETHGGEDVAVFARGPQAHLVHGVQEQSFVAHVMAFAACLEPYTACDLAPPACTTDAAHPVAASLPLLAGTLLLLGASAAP
Assay [20] has as its target T3, Carboxy-terminal domain RNA polymerase II polypeptide A small phosphatase 1 (Homo sapiens, UniProt Q9GZU7).
T3 sequence (Q9GZU7 whole entry): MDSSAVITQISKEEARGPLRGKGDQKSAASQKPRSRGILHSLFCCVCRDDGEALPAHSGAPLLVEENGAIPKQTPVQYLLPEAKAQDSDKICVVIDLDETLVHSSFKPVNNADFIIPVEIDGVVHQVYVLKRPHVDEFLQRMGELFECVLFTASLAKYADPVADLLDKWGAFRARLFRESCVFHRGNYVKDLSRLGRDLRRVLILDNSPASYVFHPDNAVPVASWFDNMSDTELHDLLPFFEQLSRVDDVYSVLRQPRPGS
Put plainly: CTDSP1 inhibitors, concentration-response, biochemical, absorbance readout, ultra-high-throughput screen actives (AID 540297). Format: functional.

In assay [21] the target is Genome polyprotein (dengue virus type 2, UniProt P29990). The assay is described as follows: flavivirus cap methylation enzyme inhibition – biochemical, confirmation dose response, primary screen (AID 588689). It is filed as functional.
Assay [22] concerns the target T4, Dual specificity protein phosphatase 6 (Rattus norvegicus, UniProt Q64346).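 Note: in vitro confirmatory secondary MKP-3 assay designed to detect irreversible or slow-binding inhibitors; recombinant His-tagged rat MKP-3 acting on the substrate OMFP; inhibitor potency from reduced phosphatase rate.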
T4 sequence (Q64346 whole entry): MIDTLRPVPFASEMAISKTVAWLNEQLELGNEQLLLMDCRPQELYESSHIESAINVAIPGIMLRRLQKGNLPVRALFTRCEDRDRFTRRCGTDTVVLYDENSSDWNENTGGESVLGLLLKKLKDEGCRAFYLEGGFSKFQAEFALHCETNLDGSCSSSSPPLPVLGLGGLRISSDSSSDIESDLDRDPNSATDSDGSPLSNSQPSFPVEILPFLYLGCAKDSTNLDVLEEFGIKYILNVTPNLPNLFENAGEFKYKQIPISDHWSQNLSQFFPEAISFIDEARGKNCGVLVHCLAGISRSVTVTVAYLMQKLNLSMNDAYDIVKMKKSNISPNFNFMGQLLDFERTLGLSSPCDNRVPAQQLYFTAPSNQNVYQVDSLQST

Assay [23] has as its target T1, Tyrosine-protein phosphatase non-receptor type 7. Format: functional.
Assay [24] deals with Induced myeloid leukemia cell differentiation protein Mcl-1 (Homo sapiens, UniProt Q07820). Format: functional.
Chain of Induced myeloid leukemia cell differentiation protein Mcl-1 (Q07820 whole entry): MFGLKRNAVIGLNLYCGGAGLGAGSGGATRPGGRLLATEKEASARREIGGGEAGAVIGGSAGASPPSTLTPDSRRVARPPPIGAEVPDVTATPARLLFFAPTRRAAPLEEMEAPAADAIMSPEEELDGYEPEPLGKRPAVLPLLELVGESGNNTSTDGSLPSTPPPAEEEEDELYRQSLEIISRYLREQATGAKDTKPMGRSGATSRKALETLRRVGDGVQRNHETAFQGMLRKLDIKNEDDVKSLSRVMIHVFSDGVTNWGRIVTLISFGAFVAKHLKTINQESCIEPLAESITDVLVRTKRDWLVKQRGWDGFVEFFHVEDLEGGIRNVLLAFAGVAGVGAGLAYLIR
Assay [25] has as its target Glyceraldehyde-3-phosphate dehydrogenase (Homo sapiens, UniProt P04406).
Assay [26] in a line: alpha-synuclein stem-loop luciferase translation blockers – H4 neuroglioma cells, luminescence, confirmation (AID 1988). Format: functional, cell-based.
Assay [27] in a line: luciferase reporter signal suppression in cells – H4 neuroglioma cells, luminescence, dose response (AID 1990). Format: functional, cell-based.
Assay [28] concerns the target Voltage-dependent T-type calcium channel subunit alpha-1H (Homo sapiens, UniProt O95180). Format: functional.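 Note: channel activity triggered by adding a high calcium stimulation buffer.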
For assay [29], the target named is T2, Dual specificity protein phosphatase 3. The assay is described as follows: inhibition constants for human DUSP3 – biochemical, colorimetric, SAR follow-up (AID 2004).
For assay [30], the target named is T5, Neuropeptides B/W receptor type 1 (Homo sapiens, UniProt P48145).
T5 sequence (P48145 whole entry): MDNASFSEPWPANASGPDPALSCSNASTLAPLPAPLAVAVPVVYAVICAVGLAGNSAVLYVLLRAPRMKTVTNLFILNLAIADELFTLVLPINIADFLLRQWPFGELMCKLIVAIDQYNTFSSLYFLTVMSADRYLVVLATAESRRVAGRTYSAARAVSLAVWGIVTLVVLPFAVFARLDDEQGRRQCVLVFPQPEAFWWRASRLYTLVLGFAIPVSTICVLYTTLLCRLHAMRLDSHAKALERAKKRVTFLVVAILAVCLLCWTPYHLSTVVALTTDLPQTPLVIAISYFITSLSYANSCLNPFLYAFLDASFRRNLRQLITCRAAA
The assay is described as follows: human NPBW1 receptor blockade, IC50 – cell-based, fluorescence, dose response, late-stage follow-up (AID 463251). Format: functional.

Assay [31] concerns the target Melanin-concentrating hormone receptor 1 (Homo sapiens, UniProt Q99705). Put plainly: Late-stage fluorescence-based counterscreen for antagonists of the G-protein coupled receptor 7 (GPR7): cell-based dose response assay to identify antagonists of the melanin-concentrating hormone receptor 1 (MCHR1). [Related pubchem assays (depositor defined):AID1861, AID1880, AID1952, AID2148, AID2251, AID2257, AID485339]. It is filed as functional.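 Note: stimulated with 30 nM MCH peptide agonist.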

In assay [32] the target is Kappa-type opioid receptor (Homo sapiens, UniProt P41145). The assay is described as follows: SAR analysis of small molecule agonists of the kappa opioid receptor via a luminescent beta-arrestin assay - Set 2. [Related pubchem assays (depositor defined):AID1777, AID1785, AID1786, AID1966, AID2133, AID2136, AID2284, AID449737]. It is filed as functional.
Chain of Kappa-type opioid receptor (P41145 whole entry): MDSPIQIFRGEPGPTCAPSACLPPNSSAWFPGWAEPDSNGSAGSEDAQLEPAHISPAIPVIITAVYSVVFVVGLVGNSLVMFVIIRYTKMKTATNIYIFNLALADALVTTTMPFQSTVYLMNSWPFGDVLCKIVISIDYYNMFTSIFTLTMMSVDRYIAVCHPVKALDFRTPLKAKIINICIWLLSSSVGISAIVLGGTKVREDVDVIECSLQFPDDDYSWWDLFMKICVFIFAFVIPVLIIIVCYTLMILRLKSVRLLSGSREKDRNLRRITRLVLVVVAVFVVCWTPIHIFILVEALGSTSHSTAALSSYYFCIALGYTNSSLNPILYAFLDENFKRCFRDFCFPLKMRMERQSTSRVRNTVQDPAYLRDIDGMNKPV
The test system of assay [33] is Trypanosoma cruzi. Put plainly: anti-trypanosomal activity in host cells – cell-based, plate reader, dry powder, set 3, dose response (AID 493197). It is filed as functional.
Assay [34] deals with Collagenase 3 (Homo sapiens, UniProt P45452). Put plainly: potency against MMP13, MMP2, MMP3, MMP14 – biochemical, probe development, late stage results, selectivity assay for MMP13 inhibitor project, late-stage follow-up, panel member MMP-13 [IC50 Assay] (AID 2067).
For assay [35], the target named is Neutrophil collagenase (Homo sapiens, UniProt P22894). The assay is described as follows: potency against MMP13, MMP2, MMP3, MMP14 – biochemical, probe development, late stage results, selectivity assay for MMP13 inhibitor project, late-stage follow-up, panel member MMP-8 [IC50 Assay] (AID 2067).
Assay [36] has as its target Cyclin-dependent kinase 5/CDK5 activator 1 (Homo sapiens, UniProt Q00535). The assay is described as follows: blockade of human CDK5 activity – biochemical, cherry-picked samples, set 2, dose response (AID 504545).

The source made the active and inactive calls. A value given as a limit tells only on which side of the number the result lay.

Chain of Acyl-homoserine lactone acylase PvdQ (Q9I194 24-193 limits assumed): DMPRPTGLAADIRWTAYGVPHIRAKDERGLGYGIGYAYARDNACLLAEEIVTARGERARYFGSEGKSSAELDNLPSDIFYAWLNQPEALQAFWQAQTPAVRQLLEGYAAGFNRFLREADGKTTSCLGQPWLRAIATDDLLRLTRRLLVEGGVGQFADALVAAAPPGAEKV
Chain of Acyl-homoserine lactone acylase PvdQ (Q9I194 217-762 limits assumed): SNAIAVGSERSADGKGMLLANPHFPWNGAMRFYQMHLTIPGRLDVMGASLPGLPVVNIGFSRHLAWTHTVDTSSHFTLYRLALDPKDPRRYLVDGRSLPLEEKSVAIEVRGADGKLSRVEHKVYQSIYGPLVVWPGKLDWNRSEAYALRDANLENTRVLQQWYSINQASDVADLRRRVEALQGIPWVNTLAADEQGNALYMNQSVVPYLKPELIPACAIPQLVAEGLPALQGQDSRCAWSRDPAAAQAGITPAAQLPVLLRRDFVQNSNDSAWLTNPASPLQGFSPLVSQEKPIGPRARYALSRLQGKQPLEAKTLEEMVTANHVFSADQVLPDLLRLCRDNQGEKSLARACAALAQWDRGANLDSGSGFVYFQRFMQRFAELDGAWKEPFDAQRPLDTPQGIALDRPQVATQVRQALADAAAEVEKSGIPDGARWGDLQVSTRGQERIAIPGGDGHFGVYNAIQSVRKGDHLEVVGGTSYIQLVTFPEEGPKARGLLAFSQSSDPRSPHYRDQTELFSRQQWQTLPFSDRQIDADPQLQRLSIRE
Chain of Glyceraldehyde-3-phosphate dehydrogenase (P04406 whole entry): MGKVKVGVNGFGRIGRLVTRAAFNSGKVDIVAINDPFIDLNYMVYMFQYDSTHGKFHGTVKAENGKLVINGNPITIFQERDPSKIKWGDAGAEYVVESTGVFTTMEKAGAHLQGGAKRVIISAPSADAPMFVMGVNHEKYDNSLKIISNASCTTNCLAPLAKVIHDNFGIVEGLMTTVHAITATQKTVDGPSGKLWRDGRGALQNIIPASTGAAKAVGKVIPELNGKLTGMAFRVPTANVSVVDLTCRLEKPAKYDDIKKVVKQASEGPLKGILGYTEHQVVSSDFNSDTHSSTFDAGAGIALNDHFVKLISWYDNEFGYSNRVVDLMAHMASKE
Chain of Melanin-concentrating hormone receptor 1 (Q99705 whole entry): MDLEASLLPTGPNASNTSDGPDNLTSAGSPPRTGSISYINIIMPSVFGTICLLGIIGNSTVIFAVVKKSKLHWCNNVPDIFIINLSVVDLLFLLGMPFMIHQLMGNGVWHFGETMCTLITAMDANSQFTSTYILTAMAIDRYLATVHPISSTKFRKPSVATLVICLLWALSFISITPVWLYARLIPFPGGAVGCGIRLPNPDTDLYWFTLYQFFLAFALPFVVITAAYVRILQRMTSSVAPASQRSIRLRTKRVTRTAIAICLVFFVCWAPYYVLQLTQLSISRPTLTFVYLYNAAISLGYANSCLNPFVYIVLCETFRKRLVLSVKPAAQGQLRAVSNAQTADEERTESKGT
Chain of Scavenger receptor class B member 1 (Q61009 whole entry): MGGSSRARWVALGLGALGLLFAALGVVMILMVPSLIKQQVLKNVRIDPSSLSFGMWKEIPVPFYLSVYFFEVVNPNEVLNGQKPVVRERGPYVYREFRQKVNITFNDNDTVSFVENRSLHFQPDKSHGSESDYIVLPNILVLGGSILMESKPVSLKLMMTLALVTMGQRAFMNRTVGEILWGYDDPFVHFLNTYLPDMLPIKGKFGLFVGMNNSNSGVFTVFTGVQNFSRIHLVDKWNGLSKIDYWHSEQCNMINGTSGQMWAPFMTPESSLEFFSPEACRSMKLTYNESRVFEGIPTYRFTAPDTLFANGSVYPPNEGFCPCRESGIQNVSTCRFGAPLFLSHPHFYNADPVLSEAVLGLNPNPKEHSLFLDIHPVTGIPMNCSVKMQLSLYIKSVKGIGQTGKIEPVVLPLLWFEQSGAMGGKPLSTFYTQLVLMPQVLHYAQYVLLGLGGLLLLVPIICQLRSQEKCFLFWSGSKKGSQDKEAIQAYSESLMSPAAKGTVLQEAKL

As for `CC(C)N=C(NC#N)SCc1ccccc1F`, the half-maximal activity concentration (AC50) (usually the concentration giving half of the maximal activity seen) in assay [1] is 10.8 µM (active).
Take `N#Cc1cc2c(nc1SCC(=O)Nc1ccc(Cl)cc1)C1CCN2CC1`: the EC50 – broadly, the midpoint of the concentration-response curve – in assay [2] was 2.33 µM (active); in assay [3], 27.9 µM (active); in assay [4], > 120 µM (not active); in [5] it was 2.86 µM (active); in [6], 20.1 µM (active); in assay [7] it was 5.38 µM (active).
On to `COc1ccc(NC(=O)c2c(Nc3ccccc3)sc(C(=O)c3ccc(F)cc3)c2N)cc1`, for which the IC50 in assay [8], in [9], in assay [13] and in assay [15] was > 20 µM (inactive) in each case. Also, the AC50 in assay [10] is 2.46 µM (active); in assay [12], 2.91 µM (active); in assay [14], 1.69 µM (active). Besides, the EC50 in [11] and in assay [16] was > 20 µM (inactive) each time.
Regarding `CCOc1ccc(-n2c(N)c(C(=O)NCc3ccco3)sc2=S)cc1`, the IC50 in [17] and in [18] was > 100 µM (inactive) throughout.
Regarding `O=C(Cc1coc2ccc3ccccc3c12)NCc1ccccc1`, in assay [19], the IC50 – broadly, the point on the concentration scale where inhibition reaches its midpoint – is > 100 µM (inactive).
`Cc1ccc2c(c1Cl)NC(C(=O)O)C1CC(Sc3ccccc3[N+](=O)[O-])C(Cl)C21` (stereo unspecified): the IC50 is 2.97 µM (active) in assay [20]; 76.9 µM (active) in [21]; 42.6 µM (active) in assay [22]; 13.7 µM (active) in assay [23]; 2.96 µM (active) in [24]; > 100 µM (not active) in assay [25].
With `Cc1ccc(Cn2nc(C)c(NC(=O)c3cc(-c4ccc5c(c4)OCO5)on3)c2C)cc1`, the half-maximal effective concentration (EC50) in assay [26] is 14 µM (active); in assay [27], > 120 µM (not active); in [28], 30 µM (active).
Turning to `O=C(O)C(Cc1ccccc1)NC(=S)Nc1ccccc1` (stereo unspecified), in assay [29], the Ki (usually a dissociation constant, usually derived from enzyme kinetics or from competition with a known ligand) was 28.8 µM (inactive).
On to `Cc1ccc(-n2ccc(Cl)c(Cl)c2=O)cc1`, for which the IC50 in [30] and in [31] was > 20 µM (inactive) in each case.
Take `COC(=O)CN(Cc1cccs1)C(=O)c1cccnc1`: the EC50 in [32] was > 20 µM (inactive).
With `CCNC(=O)C1(C)CCCN(Cc2cccc(Oc3ccccc3)c2)C1` (stereo unspecified), the AC50 in assay [33] was 45.6 µM (active).
Turning to `C#CCSc1nc2c(c(=O)[nH]1)CCC2`, the IC50 was > 39.8 µM (inactive) in [34] and > 39.8 µM (active) in [35].
Consider `CCc1c(O)nc(N)nc1Nc1ccccc1Cl`, for which the half-maximal activity concentration (AC50) in assay [36] was 7.32 µM (active).
